From ChEMBL document CHEMBL1909046, “DrugMatrix in vitro pharmacology data” come the findings set out here.

Assay [1] addresses T1, Alpha-1B adrenergic receptor (Rattus norvegicus, UniProt P15823).
T1 sequence (P15823 whole entry): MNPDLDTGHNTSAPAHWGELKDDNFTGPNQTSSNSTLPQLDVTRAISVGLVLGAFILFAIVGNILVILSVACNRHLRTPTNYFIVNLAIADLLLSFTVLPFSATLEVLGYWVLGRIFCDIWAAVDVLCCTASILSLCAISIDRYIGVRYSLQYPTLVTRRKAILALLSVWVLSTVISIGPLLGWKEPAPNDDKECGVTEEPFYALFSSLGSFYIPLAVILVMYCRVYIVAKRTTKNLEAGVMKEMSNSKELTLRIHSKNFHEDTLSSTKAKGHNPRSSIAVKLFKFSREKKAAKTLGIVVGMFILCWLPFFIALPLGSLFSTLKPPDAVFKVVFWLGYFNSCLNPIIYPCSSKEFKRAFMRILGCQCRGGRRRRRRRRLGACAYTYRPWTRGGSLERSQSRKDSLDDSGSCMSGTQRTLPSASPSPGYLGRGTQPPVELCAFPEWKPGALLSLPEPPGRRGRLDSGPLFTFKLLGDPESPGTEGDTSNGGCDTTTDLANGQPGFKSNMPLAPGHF
Nature of the assay: DRUGMATRIX: Alpha-1B adrenergic receptor radioligand binding (ligand: prazosin). Format: cell membranes, Wistar, Liver, Membrane. The note with it: Not Active = under 50% inhibition at 10 µM.

For assay [2], the target named is 5-hydroxytryptamine receptor 4 (Cavia porcellus, UniProt O70528). Format: cell membranes, Dunkin-Hartley, Striatum, Membrane. Further: in other assays of this panel Not Active means under 50% inhibition at 10 µM.
5-hydroxytryptamine receptor 4, sequence (O70528 whole entry): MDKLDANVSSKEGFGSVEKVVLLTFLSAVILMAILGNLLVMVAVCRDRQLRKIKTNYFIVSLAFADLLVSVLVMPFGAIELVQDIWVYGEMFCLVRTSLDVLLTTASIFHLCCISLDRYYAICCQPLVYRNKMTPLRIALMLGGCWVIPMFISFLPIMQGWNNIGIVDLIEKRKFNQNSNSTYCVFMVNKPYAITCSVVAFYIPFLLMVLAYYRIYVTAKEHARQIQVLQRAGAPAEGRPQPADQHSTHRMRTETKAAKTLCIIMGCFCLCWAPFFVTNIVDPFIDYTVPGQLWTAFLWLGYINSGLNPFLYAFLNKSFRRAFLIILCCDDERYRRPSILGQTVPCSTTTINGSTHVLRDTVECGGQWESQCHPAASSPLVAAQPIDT
Assay [3] can be described thus: DRUGMATRIX: Interleukin IL-1 radioligand binding (ligand: [125I] interleukin 1beta). Format: cell membranes, Membrane. To be noted: nih3t3; Not Active = under 50% inhibition at 10 µM.
The target in assay [4] is T2, Polyunsaturated fatty acid lipoxygenase ALOX15 (Oryctolagus cuniculus, UniProt P12530).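 Further: inhibition of 15-lipoxygenase enzyme activity measured with linoleic acid as the substrate; in other assays of this panel Not Active means under 50% inhibition at 10 µM.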
T2 sequence (P12530 whole entry): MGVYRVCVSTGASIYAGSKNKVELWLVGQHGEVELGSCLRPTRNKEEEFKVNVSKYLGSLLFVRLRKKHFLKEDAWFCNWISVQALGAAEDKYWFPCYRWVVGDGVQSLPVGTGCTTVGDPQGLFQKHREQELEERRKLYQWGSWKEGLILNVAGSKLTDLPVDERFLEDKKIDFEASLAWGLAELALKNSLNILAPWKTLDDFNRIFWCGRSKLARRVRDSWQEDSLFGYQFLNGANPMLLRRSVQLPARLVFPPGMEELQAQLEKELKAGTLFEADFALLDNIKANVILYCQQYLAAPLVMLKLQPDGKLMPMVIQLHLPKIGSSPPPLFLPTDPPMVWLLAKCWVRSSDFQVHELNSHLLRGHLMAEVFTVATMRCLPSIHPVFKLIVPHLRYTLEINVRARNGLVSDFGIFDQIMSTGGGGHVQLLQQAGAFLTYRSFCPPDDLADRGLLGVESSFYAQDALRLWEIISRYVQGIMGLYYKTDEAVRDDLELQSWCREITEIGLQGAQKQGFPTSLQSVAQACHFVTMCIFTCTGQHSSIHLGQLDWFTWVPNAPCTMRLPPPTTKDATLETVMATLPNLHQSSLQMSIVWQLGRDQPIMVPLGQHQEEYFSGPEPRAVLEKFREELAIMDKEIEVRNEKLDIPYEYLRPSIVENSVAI
In words: biochemical. To be noted: reticulocytes. Format: tissue-based, Reticulocytes.

For a further assay, the target named is T3, Interstitial collagenase (Homo sapiens, UniProt P03956).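 Further: MMP-1 enzyme inhibition assay using a peptide substrate; in other assays of this panel Not Active means under 50% inhibition at 10 µM.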
T3 sequence (P03956 whole entry): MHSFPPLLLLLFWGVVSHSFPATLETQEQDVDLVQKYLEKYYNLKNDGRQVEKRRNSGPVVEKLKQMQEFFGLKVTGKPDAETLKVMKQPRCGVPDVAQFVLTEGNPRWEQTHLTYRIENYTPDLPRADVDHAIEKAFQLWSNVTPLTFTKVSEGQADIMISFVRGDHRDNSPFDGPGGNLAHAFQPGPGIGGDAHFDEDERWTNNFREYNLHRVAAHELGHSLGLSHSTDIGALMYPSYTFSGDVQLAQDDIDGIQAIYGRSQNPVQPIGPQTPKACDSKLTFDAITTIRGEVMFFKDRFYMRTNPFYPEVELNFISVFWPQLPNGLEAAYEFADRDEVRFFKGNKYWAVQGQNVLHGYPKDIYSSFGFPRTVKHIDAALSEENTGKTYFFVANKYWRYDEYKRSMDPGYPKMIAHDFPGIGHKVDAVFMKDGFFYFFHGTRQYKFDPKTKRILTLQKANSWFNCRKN
Format: tissue-based, Rheumatoid synovial fibroblasts.

Assay [5] is described as follows: DRUGMATRIX: Glutamate, NMDA, Phencyclidine radioligand binding (ligand: [3H] TCP). Format: cell membranes, Rattus norvegicus, Wistar, Cerebral cortex, Membrane. The note with it: Not Active = under 50% inhibition at 10 µM.
For another assay, the target named is Glycine receptor (Rattus norvegicus, UniProt P22771+P24524+P07727+P20781). Format: cell membranes, Wistar, Spinal cord, Membrane. Further: in other assays of this panel Not Active means under 50% inhibition at 10 µM.
Another assay deals with T4, Neutrophil elastase (Homo sapiens, UniProt P08246).
T4 sequence (P08246 whole entry): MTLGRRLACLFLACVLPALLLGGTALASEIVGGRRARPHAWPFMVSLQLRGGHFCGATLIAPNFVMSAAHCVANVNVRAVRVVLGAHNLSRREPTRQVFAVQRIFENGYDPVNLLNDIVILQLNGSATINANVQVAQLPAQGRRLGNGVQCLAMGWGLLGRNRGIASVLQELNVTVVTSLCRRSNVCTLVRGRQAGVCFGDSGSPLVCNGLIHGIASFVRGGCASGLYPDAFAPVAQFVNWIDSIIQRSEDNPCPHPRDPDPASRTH
Format: tissue-based.

The nature of assay [6]: DRUGMATRIX: Calcium Channel Type L, Dihydropyridine radioligand binding (ligand: [3H] Nitrendipine). Format: cell membranes, Rattus norvegicus, Wistar, Cerebral cortex, Membrane. The note with it: Not Active = under 50% inhibition at 10 µM.
For assay [7], the target named is T5, Neuropeptide Y receptor type 1 (Homo sapiens, UniProt P25929). Further: in other assays of this panel Not Active means under 50% inhibition at 10 µM.
T5 sequence (P25929 whole entry): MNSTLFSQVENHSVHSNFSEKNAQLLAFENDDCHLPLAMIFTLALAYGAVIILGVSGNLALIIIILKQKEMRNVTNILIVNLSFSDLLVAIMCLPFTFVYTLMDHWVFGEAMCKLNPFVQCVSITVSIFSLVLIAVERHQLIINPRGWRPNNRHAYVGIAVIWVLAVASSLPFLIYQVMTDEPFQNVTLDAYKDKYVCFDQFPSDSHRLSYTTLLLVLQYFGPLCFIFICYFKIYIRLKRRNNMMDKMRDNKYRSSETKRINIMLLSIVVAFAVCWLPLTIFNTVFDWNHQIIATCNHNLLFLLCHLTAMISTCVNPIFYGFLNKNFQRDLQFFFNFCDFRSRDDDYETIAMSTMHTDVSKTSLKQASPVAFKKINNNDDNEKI
Format: cell membranes, Membrane. The note with it: sk-n-mc.

In another assay the target is Adenosine receptor A2a (Homo sapiens, UniProt P29274). Nature of the assay: DRUGMATRIX: Adenosine A2A radioligand binding (ligand: […]). Format: cell membranes, HEK293, Membrane. To be noted: hek293; Not Active = under 50% inhibition at 10 µM.
Adenosine receptor A2a, sequence (P29274 whole entry): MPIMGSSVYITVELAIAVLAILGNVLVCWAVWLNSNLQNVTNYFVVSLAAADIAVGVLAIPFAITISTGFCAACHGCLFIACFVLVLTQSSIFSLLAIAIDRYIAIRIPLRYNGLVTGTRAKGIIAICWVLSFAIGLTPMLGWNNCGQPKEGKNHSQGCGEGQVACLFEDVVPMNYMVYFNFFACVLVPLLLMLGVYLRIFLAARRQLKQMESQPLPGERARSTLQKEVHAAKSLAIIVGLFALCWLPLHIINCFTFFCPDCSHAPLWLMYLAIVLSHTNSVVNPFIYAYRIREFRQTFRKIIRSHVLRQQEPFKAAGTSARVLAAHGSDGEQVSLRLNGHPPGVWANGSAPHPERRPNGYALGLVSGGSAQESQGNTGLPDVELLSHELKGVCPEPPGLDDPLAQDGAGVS

Molecules are shown by their SMILES. pIC50, pKi: −log10 of the molar value.

Turning to `CC(CCc1ccccc1)NCC(O)c1ccc(O)c(C(N)=O)c1` (centres undefined) [LABETALOL], the pIC50 (usually the IC50 on a negative log10 scale, so that one unit is a factor of ten) in assay [1] (read-out: IC50) was 6.23. Moreover, the pKi – broadly, the Ki on a negative log10 scale, so that one unit is a factor of ten – in assay [1] (read-out: Ki) was 6.49. Besides, the IC50 entry (in assay [2]; in assay [3]; in [4]; on Interstitial collagenase; in assay [5]; against Glycine receptor) was “Not Active” throughout. Further, the IC50 result (against Neutrophil elastase; in assay [6]; in assay [7]; at Adenosine receptor A2a) was “Not Active” each time. Also, the Ki entry in [3], in [5] and in assay [6] was “Not Active” throughout.
`Nc1nnc(-c2cccc(Cl)c2Cl)c(N)n1` [LAMOTRIGINE]: the IC50 result (in [1]; in [2]; in assay [3]; in [4]; against Interstitial collagenase; in [5]) was “Not Active” throughout. In addition, the IC50 entry (on Glycine receptor; on Neutrophil elastase; in assay [6]; in [7]; at Adenosine receptor A2a) was “Not Active” in each case. Besides, the Ki result in [3], in [5] and in [6] was “Not Active” in each case.
As to `CCC[C@@H]1C[C@@H](C(=O)N[C@@H]([C@H]2O[C@H](SC)[C@H](O)[C@@H](O)[C@H]2O)[C@@H](C)O)N(C)C1` [LINCOMYCIN], the IC50 result (in [1]; in assay [2]; in [3]; in [4]; against Interstitial collagenase; in assay [5]) was “Not Active” in each case. Also, the IC50 result (at Glycine receptor; on Neutrophil elastase; in assay [6]; in assay [7]; at Adenosine receptor A2a) was “Not Active” throughout. Further, the Ki entry in [3], in assay [5] and in assay [6] was “Not Active” throughout.
For `NCCCC[C@H](N[C@@H](CCc1ccccc1)C(=O)O)C(=O)N1CCC[C@H]1C(=O)O` [LISINOPRIL ANHYDROUS], the IC50 entry (in [1]; in assay [2]; in assay [3]; in assay [4]; against Interstitial collagenase; in [5]) was “Not Active” each time. Besides, the IC50 result (at Glycine receptor; at Neutrophil elastase; in [6]; in [7]; on Adenosine receptor A2a) was “Not Active” throughout. The Ki result in assay [3], in assay [5] and in [6] was “Not Active” in each case.
For the compound `COS(C)(=O)=O` [METHANESULFONIC ACID METHYL ESTER], the IC50 result (in [1]; in [2]; in assay [3]; in assay [4]; on Interstitial collagenase; in assay [5]) was “Not Active” in each case. For the same compound, the IC50 entry (against Glycine receptor; against Neutrophil elastase; in assay [6]; in [7]; at Adenosine receptor A2a) was “Not Active” throughout. For the same compound, the Ki entry in [3], in assay [5] and in assay [6] was “Not Active” in each case.
For `COC(=O)c1ccc(O)cc1` [METHYLPARABEN], the IC50 entry (in assay [1]; in assay [2]; in assay [3]; in assay [4]; against Interstitial collagenase; in [5]) was “Not Active” throughout. The IC50 entry (on Glycine receptor; against Neutrophil elastase; in assay [6]; in assay [7]; on Adenosine receptor A2a) was “Not Active” throughout. Also, the Ki result in assay [3], in [5] and in assay [6] was “Not Active” in each case.
Regarding `C[C@](N)(Cc1ccc(O)cc1)C(=O)O` [METYROSINE], the IC50 result (in assay [1]; in assay [2]; in assay [3]; in assay [4]; on Interstitial collagenase; in assay [5]) was “Not Active” each time. Besides, the IC50 result (against Glycine receptor; at Neutrophil elastase; in assay [6]; in [7]; at Adenosine receptor A2a) was “Not Active” throughout. Also, the Ki entry in assay [3], in [5] and in assay [6] was “Not Active” throughout.
